Reference: patent publication US20100234351A1, “FUSED NITROGEN-COMPRISING HETEROCYCLIC COMPOUND” (TAKEDA PHARMACEUTICAL COMPANY LIMITED, priority 2006, published 2010)
Where a name gives a salt, the structure may show the parent alone.

Tests used:
[1] = biological target: T1, EGFR intracellular domain (Homo sapiens, UniProt P00533); assay: Assay of EGFR kinase inhibitory activity; type: biochemical; settings: compound 1.0 μM, poly-Glu:Tyr (4:1) substrate, [γ-32P]ATP, read-out: Inhibitory rate (%) at 1.0 μM
T1 construct: made in house; host or cells: SF-21 insect cells infected with recombinant baculovirus BAC-EGFR
Method: Human EGFR gene was cloned by RT-PCR using total RNA prepared from A431 cell as a template. The primer used for RT-PCR was prepared from base sequence (Genbank Accession No. X00588) information of EGFR gene, adding DYKDDDD base sequence encoding the peptide and a restriction enzyme recognition sequence to a base sequence (2191-3819 of Genbank Accession No. X00588 as a base, and corresponding to 669-1210 amino acid of Genbank Accession No. NP_005219 as a protein) encoding the EGFR intracellular domain, so that a DYKDDDD peptide tag would be attached to the N-terminus of the protein. The base sequence of the primer is shown in below.
The RT reaction was performed using Superscript First-Strand Synthesis System for RT-PCR (Invitrogen), and PCR reaction was performed using KOD-plus kit (TOYOBO). The obtained PCR product was electrophoresed on agarose gel (1%), and the DNA fragment amplified by PCR was recovered from the gel, and then digested with restriction enzymes Sal I and Sph I. The DNA treated with the restriction enzymes was electrophoresed on agarose gel (1%), and the obtained DNA fragment was recovered and ligated to plasmid pFASTBAC1 (Invitrogen) digested with restriction enzymes Sal I and Sph I to give expression plasmid pFB-EGFR. The base sequence of the inserted fragment was confirmed and found to be identical with the base sequence of the EGFR intracellular domain (2191-3819 of Genbank Accession X00588). Furthermore, virus stock BAG-EGFR of recombinant Baculovirus was prepared using BAC-TO-BAC Baculovirus Expression System (Invitrogen).
SF-21 cells were sown at 1×10^6 cells/mL to 1 L of Sf-900II SFM medium (Invitrogen) containing 10% fetal calf serum (trace), 50 mg/L Gentamicin (Invitrogen) and 0.1% Pluronic F-68 (Invitrogen), and cultured with shaking in a 2 L Erlenmeyer flask at 27° C., 100 rpm. After culture for 24 hr, recombinant Baculovirus BAC-EGFR (13.4 mL) was added thereto, and the cells were further cultured for 3 days. The culture medium was centrifuged at 2,000 rpm for 5 min to give virus infected cells. The infected cells were washed with phosphate buffered saline (Invitrogen), centrifuged under the same conditions, and preserved at −80° C. The cryopreserved cells were thawed in ice and suspended in 30 mL of buffer A containing Complete Protease Inhibitor (Boehringer) (50 mM tris buffer (pH 7.4) containing 20% Glycerol, 0.15 M NaCl). The cells were disrupted 3 times at 20,000 rpm for 30 sec using a polytron homogenizer (Kinematica). The disrupt was clarified by centrifugation at 40,000 rpm for 30 min and filtered through a 0.45 μm filter. The filtrate was passed through a column packed with 4 mL of Anti-FLAG M2 Affinity Gel (Sigma Aldrich Co.) at a flow rate of about 0.5 mL/min. The column was washed with buffer A, and eluted with buffer A containing 100 μg/mL of FLAG peptide. The eluate was concentrated with Vivaspin 20 having a molecular weight cut off of 30 K (Vivascience). The concentrate was purified by gel filtration using Hi-Load 16/60 Superdex 200 pg (GE Healthcare Bioscience) equilibrated with buffer A. The fractions containing EGFR intracellular domain were collected and cryopreserved at −80° C.
EGFR kinase reaction was carried out using a 96-well plate. As a buffer for Kinase reaction, a buffer of a composition of 50 mM Tris-HCl (pH 7.5), 5 mM MnCl2, 2 mM dithiothreitol and 0.01% Tween-20 was used. […]

[2] = tested on: human breast cancer cell BT-474; assay: Inhibitory action on breast cancer cell BT-474 proliferation in vitro; type: cell-based; settings: 120 h, BT-474 cells, cultured 5 days with compound, SRB staining of cell protein
Method: A suspension of human breast cancer cell BT-474 (100 μl (6,000 cells)) were plated to 96-well microplate and cultured in an incubator (37° C., 5% carbon dioxide). On the following day, 100 μl of a solution of each test compound previously diluted serially in 2-fold, was added to give indicated dose, and the cells were cultured for 5 days. The culture medium containing the test compound was removed, and the cells were washed, and fixed with 50% trichloroacetic acid, and 0.4% w/v) SRB solution (dissolved in 1% acetic acid) was added to stain the cell protein (Skehan et al., Journal of the National Cancer Institute, Vol. 82, pp. 1107-1112, 1990). After washing with a 1% acetic acid solution, 100 μl of Tris solution (10 mM) was added to extract the pigment and the absorbance was measured at a wavelength of 550 nm to quantify the amount of cells as protein content. Taking as 100% the protein content for the control group, which received no test compound solution, the ratio of the residual protein content for each treatment group was determined, and the compound concentration required to achieve 50% suppression of the residual cell content relative to the control (IC50 value) was calculated.

[3] = biological target: T2, HER2 intracellular domain (Homo sapiens, UniProt P04626); assay: Measurement of HER2 kinase inhibitory activity; type: biochemical; settings: compound 1.0 μM, poly-Glu:Tyr (4:1) substrate, [γ-32P]ATP, read-out: Inhibitory rate (%) at 1.0 μM
T2 construct: made in house; host or cells: SF-21 insect cells infected with recombinant baculovirus BAC-HER2
Method: Human HER2 gene was cloned by RT-PCR using total RNA prepared from MCF7 cells as a template. The primer used for RT-PCR was prepared from base sequence (Genbank Accession No. M11730) information of HER2 gene, adding base sequence encoding DYKDDDD peptide and a restriction enzyme recognition sequence to a nucleotide sequence (2176-3918 of Genbank Accession No. M11730 as a base, and corresponding to 676-1255 amino acid of Genbank Accession No. NP_004439 as a protein) encoding the HER2 intracellular domain region, so that a DYKDDDD peptide tag would be attached to the N-terminus of the protein. The base sequence of the primer is shown in below.
The RT reaction was performed using Superscript First-Strand Synthesis System for RT-PCR (Invitrogen) and the PCR reaction was performed using KOD-plus kit (TOYOBO). The obtained PCR product was electrophoresed on agarose gel (1%), and the DNA fragment amplified by PCR was recovered from the gel, and then digested with restriction enzymes Sal I and Sph I. The DNA treated with the restriction enzymes was electrophoresed on agarose gel (1%), and the obtained DNA fragment was recovered and ligated to plasmid pFASTBAC1 (Invitrogen) digested with restriction enzymes Sal I and Sph I to give expression plasmid pFB-HER2. The base sequence of the inserted fragment was confirmed and found to be identical with the base sequence of HER2 intracellular domain (2176-3918 of Genbank Accession M11730). Furthermore, using BAC-TO-BAC Baculovirus Expression System (Invitrogen), recombinant baculovirus BAC-HER2 was prepared.
SF-21 cells were sown at 1×10^6 cells/mL to 1 L of Sf-900II SFM medium (Invitrogen) containing 10% fetal calf serum (trace), 50 mg/L gentamicin (Invitrogen) and 0.1% Pluronic F-68 (Invitrogen), and cultured with shaking in 2 L volume Erlenmeyer flask at 27° C., 100 rpm. After culturing for 24 hr, recombinant baculovirus BAC-HER2 (13.4 mL) was added thereto, and the cells were further cultured for 3 days. The culture medium was centrifuged at 2,000 rpm for 5 min to give virus-infected cells. The infected cells were washed with phosphate buffered saline (Invitrogen), centrifuged under the same conditions, and preserved at −80° C. The cryopreserved cells were thawed in ice and suspended in buffer A (50 mM Tris buffer (30 mL, pH 7.4) containing 20% glycerol, 0.15 M NaCl) supplemented with Complete Protease Inhibitor (Boehringer). The cells were ruptured 3 times with a Polytron homogenizer (Kinematica) at 20,000 rpm for 30 sec. The disrupt was clarified by centrifugation at 40,000 rpm for 30 min and filtered with a 0.45 μm filter. The filtrate was passed through a column packed with Anti-FLAG M2 Affinity Gel (4 mL, Sigma Aldrich CO.) at a flow rate of about 0.5 mL/min. The column was washed with buffer A, and eluted with buffer A containing 100 μg/mL of FLAG peptide. The eluate was concentrated with Vivaspin 20 (Vivascience) having a molecular weight cut off of 30K. The concentrate was purified by gel filtration using Hi-Load 16/60 Superdex 200pg (GE Healthcare Bioscience) equilibrated with buffer A. The fractions containing HER2 intracellular domain were collected and cryopreserved at −80° C.
HER2 kinase reaction was carried out using 96-well plate. As a buffer for Kinase reaction, a buffer of a composition of 50 mM Tris-HCl (pH 7.5), 5 mM MnCl2, 2 mM dithiothreitol and 0.01% Tween-20 was used. The compound of the present invention was dissolved in dimethyl sulfoxide (DMSO), and diluted with a buffer for kinase reaction so that the DMSO concentration would become 0.1% during kinase reaction. The compound solution (10 μL) was mixed with a buffer for kinase reaction (20 μL) containing the HER2 intracellular domain (0.625 μg/mL) obtained in Experimental Example 1B and a polypeptide substrate poly-Glu:Tyr (4:1) (12.5 μg/mL, Sigma Ltd.) and the mixture was stood for 5 min at room temperature. […]

T1 sequence (P00533 669-1210): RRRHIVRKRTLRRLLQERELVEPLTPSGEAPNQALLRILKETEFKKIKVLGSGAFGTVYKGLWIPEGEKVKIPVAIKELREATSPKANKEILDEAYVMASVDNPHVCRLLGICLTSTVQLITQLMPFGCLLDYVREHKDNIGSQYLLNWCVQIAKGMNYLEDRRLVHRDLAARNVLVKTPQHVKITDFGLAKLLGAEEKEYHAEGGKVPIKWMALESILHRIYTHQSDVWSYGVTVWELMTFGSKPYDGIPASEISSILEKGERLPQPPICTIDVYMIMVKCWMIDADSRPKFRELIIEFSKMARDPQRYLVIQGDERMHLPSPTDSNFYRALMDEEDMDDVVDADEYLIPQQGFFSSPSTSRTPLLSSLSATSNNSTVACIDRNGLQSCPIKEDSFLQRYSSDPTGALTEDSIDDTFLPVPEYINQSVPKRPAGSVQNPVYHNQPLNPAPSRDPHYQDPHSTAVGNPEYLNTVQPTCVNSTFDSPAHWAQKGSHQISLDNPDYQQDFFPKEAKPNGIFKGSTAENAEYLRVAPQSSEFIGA
T2 sequence (P04626 676-1255): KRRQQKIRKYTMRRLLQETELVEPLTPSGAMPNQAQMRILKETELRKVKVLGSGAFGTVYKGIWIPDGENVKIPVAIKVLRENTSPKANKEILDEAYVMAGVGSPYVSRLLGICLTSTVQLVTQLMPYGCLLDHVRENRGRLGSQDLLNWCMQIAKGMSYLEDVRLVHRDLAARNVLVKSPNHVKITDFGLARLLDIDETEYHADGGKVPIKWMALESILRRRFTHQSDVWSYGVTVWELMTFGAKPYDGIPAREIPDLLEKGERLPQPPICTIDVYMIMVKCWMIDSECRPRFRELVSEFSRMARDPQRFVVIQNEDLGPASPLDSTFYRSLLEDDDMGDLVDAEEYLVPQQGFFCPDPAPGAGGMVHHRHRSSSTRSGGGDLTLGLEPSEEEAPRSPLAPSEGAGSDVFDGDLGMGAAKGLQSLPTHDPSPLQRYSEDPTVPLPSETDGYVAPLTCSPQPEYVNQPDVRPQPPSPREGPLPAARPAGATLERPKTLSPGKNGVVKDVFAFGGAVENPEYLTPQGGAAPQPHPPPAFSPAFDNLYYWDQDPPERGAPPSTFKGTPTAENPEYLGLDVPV

Structure (SMILES)	inhibition at 1 µM [1] [%]	IC50 [2] [µM]	inhibition at 1 µM [3] [%]
O=C(NCC(O)CO)C1=Cc2c(ncnc2Nc2ccc(Oc3cccc(C(F)(F)F)c3)c(Cl)c2)NCC1 (stereo not drawn) [Example 136, 4-({3-chloro-4-[3-(trifluoromethyl)phenoxy]phenyl}amino)-N-(2,3-dihydroxypropyl)-8,9-dihydro-7H-pyrimido[4,5-b]azepine-6-carboxamide]	97	–	–
O=C(NCCCn1ccnc1)C1=Cc2c(ncnc2Nc2ccc(Oc3cccc(C(F)(F)F)c3)c(Cl)c2)NCC1 [Example 115, 4-({3-chloro-4-[3-(trifluoromethyl)phenoxy]phenyl}amino)-N-[3-(1H-imidazol-1-yl)propyl]-8,9-dihydro-7H-pyrimido[4,5-b]azepine-6-carboxamide]	95	–	–
COCCOCCNC(=O)C1=Cc2c(ncnc2Nc2ccc(Oc3cccc(C(F)(F)F)c3)c(Cl)c2)NCC1 [Example 122, 4-({3-chloro-4-[3-(trifluoromethyl)phenoxy]phenyl}amino)-N-[2-(2-methoxyethoxy)ethyl]-8,9-dihydro-7H-pyrimido[4,5-b]azepine-6-carboxamide]	–	< 0.1	96
O=C(NCCS(=O)(=O)CCO)C1=Cc2c(ncnc2Nc2ccc(Oc3cccc(C(F)(F)F)c3)c(Cl)c2)NCC1 [Example 147, 4-({3-chloro-4-[3-(trifluoromethyl)phenoxy]phenyl}amino)-N-{2-[(2-hydroxyethyl)sulfonyl]ethyl}-8,9-dihydro-7H-pyrimido[4,5-b]azepine-6-carboxamide]	95	–	–
O=C(NCCOCCO)C1=Cc2c(ncnc2Nc2ccc(Oc3cccc(C(F)(F)F)c3)c(Cl)c2)NCC1 [Example 119, 4-({3-chloro-4-[3-(trifluoromethyl)phenoxy]phenyl}amino)-N-[2-(2-hydroxyethoxy)ethyl]-8,9-dihydro-7H-pyrimido[4,5-b]azepine-6-carboxamide]	96	< 0.1	–
O=C(NCCOCCO)C1=Cc2c(ncnc2Nc2ccc(Oc3cccc(Cl)c3)c(Cl)c2)NCC1 [Example 143, 4-{[3-chloro-4-(3-chlorophenoxy)phenyl]amino}-N-[2-(2-hydroxyethoxy)ethyl]-8,9-dihydro-7H-pyrimido[4,5-b]azepine-6-carboxamide hydrochloride]	97	< 0.1	–
